Experimental findings from publication PMC6211297 (Biochemistry, 2017) are described below.

The target in the assay is PglF (Campylobacter jejuni, UniProt Q0P9D4). The assay is described as follows: X-ray crystal structure, […] Å. The following applies: ternary complex with NAD(H); 10 mM UDP, pH 6.0; active site. It is filed as binding.
PglF, sequence (Q0P9D4 244-590): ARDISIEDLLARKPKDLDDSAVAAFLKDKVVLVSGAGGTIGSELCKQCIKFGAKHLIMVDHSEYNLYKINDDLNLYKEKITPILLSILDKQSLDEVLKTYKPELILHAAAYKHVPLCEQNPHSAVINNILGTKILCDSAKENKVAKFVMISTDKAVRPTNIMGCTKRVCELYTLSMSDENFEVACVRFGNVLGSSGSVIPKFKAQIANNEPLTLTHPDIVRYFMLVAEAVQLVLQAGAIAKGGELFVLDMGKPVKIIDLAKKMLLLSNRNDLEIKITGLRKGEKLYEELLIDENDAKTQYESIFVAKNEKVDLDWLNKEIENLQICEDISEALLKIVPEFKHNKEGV

Turning to `O=c1ccn([C@@H]2O[C@H](COP(=O)(O)OP(=O)(O)O)[C@@H](O)[C@H]2O)c(=O)[nH]1` [UDP], the “X-ray crystal structure, 2.0 Å” value is “The first structure determined in this investigation was that of the PglF/NAD(H)/UDP ternary complex”.
